Measurements published in US4503236A, “Antiallergic 4Hfuro[3,2-b]indoles” (Warner-Lambert Company, priority 1983, dated 1985).

What follows are compounds tested on Trachea and lungs (ovalbumin-sensitized guinea pig tissue, antigen challenge) (assay: modified Shultz-Dale procedure: inhibition of antigen-induced contraction of isolated trachea and lung from ovalbumin-immunized guinea pigs). Conditions: 3 × 10^-5 M; isolated guinea pig tissue (trachea/lung not distinguished), antigen challenge 10 min after drug.
Assay type: cell-based
Experimental: The compounds of the invention display antiallergic properties when tested by the following procedure [modification of Shultz-Dale procedure, Agents and Actions, 8, 171 (1978)]: Guinea pigs, after one week environmental stabilization, are immunized IP with 1 mg crude ovalbumin (OA) in 1 ml saline with 50% complete Freund's Adjuvant (CFA). Twenty-one days later animals are killed by a blow to the head. Trachea and lungs are removed and placed in Tyrode's solution, pH 7.4, aerated with 5% CO2 in O2.
Trachea: Connective and vascular tissue are removed and a wooden stick is inserted in the lumen. One end of the trachea is fixed with a pin. The stick is held against a surgical blade and rotated in a helical manner. Spirals formed are cut into two lengths, each containing two or more bands of transverse strips of tracheal muscle. The tissue is attached to transducers and maintained at 5 g tension. Sensitivity of the preamplifier is 2.0 mv/cm and of the amplifier, 0.02 mv/cm, with calibration of 20 mg force displacement per mm. After 45 minutes equilibration, the tissue is challenged with antigen.
Lung: The heart and lung are removed as a unit and the lung is perfused with buffer by the spontaneously beating heart for several minutes. Distal strips of lung from the diaphragmatic lobe approximately 0.3 cm wide and 3 cm long are removed and attached to transducers. Preload is 0.3 g of tension with sensitivity at 0.02 mv/cm on the amplifier and 0.5 mv/cm on the preamp and calibration of 1 mm=5 mg force displacement.
Test Design for Evaluation of Drugs: All tissues are challenged repetitively with the same concentration of antigen. After each concentration, the tissue is washed and allowed to stabilize. The original baseline tension is reestablished before the next challenge. Control contractions in lung must develop a minimum of 10 mg and in trachea, a minimum of 40 mg tension above baseline. When the contractions are reproducible, drug is introduced. Drug effects of baseline are monitored. Ten minutes later, after readjustment to baseline tension as indicated by consecutive reading one minute apart, tissue is again challenged with antigen. The concentration is monitored for at least 15 minutes and the tissue is washed free of antigen and drug. […] Tissues are not used again. If inhibition takes place, a final antigen challenge is repeated to establish that the tissue is reactive to antigen.

Question: For CCOc1c(C(=O)Nc2nnn[nH]2)oc2c3ccccc3n(-c3ccccc3)c12 [H, C6 H5, C2 H5,, 3-Ethoxy-4-phenyl-N(1H-tetrazol-5-yl)-4H-furo[3,2-b]-indole-2-carboxamide], which “% Inhibition” value is on record?
Answer: 100%

Same assay, conditions: Cavia porcellus, 10 min; 3 × 10^-5 M; isolated guinea pig tissue (trachea/lung not distinguished), antigen challenge 10 min after drug

Question: With CCOc1c(-c2nnn[nH]2)oc2c3ccccc3n(-c3ccccc3)c12 [H, C6 H5, C2 H5,, 3-Ethoxy-4-phenyl-2(1H-tetrazol-5-yl)-4H-furo[3,2-b]indole] as the compound, how does the inhibition at 30 µM read?
Answer: 100%

Question: For CCOc1c(C(=O)O)oc2c3ccccc3n(-c3ccccc3)c12 [H, C6 H5, C2 H5, COOH, 3-Ethoxy-4-phenyl-4H-furo[3,2-b]indole-2-carboxylic acid], which inhibition at 30 µM is on record?
Answer: 100%

Question: For CCOc1c(C(=O)O)oc2c3cc(OC)ccc3n(-c3ccccc3)c12 [CH3 O, C6 H5, C2 H5, COOH, 3-Ethoxy-7-methoxy-4-phenyl-4H-furo[3,2-b]indole-2-carboxylic acid], which inhibition at 30 µM is on record?
Answer: 100%

Question: How did the inhibition at 30 µM turn out when COc1ccc2c(c1)c1oc(C(=O)Nc3nnn[nH]3)c(OC)c1n2-c1ccccc1 [CH3 O, C6 H5, CH3,, 3,7-Dimethoxy-4-phenyl-N-(1H-tetrazol-5-yl)-4H-furo[3,2-b]indole-2-carboxamide] was run?
Answer: 100%

Question: For COc1c(-c2nnn[nH]2)oc2c3ccccc3n(C)c12 [H, CH3, CH3,, 3-Methoxy-4-methyl-2-(1H-tetrazol-5-yl)-4H-furo[3,2-b]indole], which inhibition at 30 µM is on record?
Answer: 26%

Question: COc1c(C(=O)O)oc2c3ccccc3n(-c3ccccc3)c12 [H, C6 H5, CH3, COOH, 3-Methoxy-4-phenyl-4H-furo[3,2-b]indole-2-carboxylic acid] was tested. Which inhibition at 30 µM did it give?
Answer: 100%

Question: How did the inhibition at 30 µM turn out when CCOc1c(C(=O)Nc2nnn[nH]2)oc2c3cc(OC)ccc3n(-c3ccccc3)c12 [CH3 O, C6 H5, C2 H5,, 3-Ethoxy-7-methoxy-4-phenyl-N-(1H-tetrazol-5-yl)-4H-furo[3,2-b]indole-2-carboxamide] was run?
Answer: 100%

Question: COc1ccc2c(c1)c1oc(C(=O)O)c(OC)c1n2-c1ccccc1 [CH3 O, C6 H5, CH3, COOH, 3,7-Dimethoxy-4-phenyl-4H-furo[3,2-b]indole-2-carboxylic acid] was tested. Which inhibition at 30 µM did it give?
Answer: 100%

Question: With COc1c(C(=O)Nc2nnn[nH]2)oc2c3ccccc3n(C)c12 [H, CH3, CH3,, 3-Methoxy-4-methyl-N-(1H-tetrazol-5-yl)-4H-furo[3,2-b]indole-2-carboxamide] as the compound, how does the inhibition at 30 µM read?
Answer: 38%

Question: Which inhibition at 30 µM does the source give for COc1c(C(=O)Nc2nnn[nH]2)oc2c3ccccc3n(-c3ccccc3)c12 [H, C6 H5, CH3,, 3-Methoxy-4-phenyl-N-(1H-tetrazol-5-yl)-4H-furo[3,2-b]indole-2-carboxamide] here?
Answer: 100%

Question: Which inhibition at 30 µM does the source give for COc1ccc2c(c1)c1oc(-c3nnn[nH]3)c(OC)c1n2-c1ccccc1 [CH3 O, C6 H5, CH3,, 3,7-Dimethoxy-4-phenyl-2-(1H-tetrazol-5-yl)-4H-furo[3,2-b]indole] here?
Answer: 100%
